Experimental data taken from patent US20040208944A1, “Compositions and methods against inflammatory processes” (priority 2002, published 2004).

Key:
COX-1 = COX-1 (Homo sapiens, UniProt P23219); assay: Stressgen StressXpress cyclooxygenase activity kit, COX-1; format: biochemical; conditions: for COX-1 activity (RLU): vehicle 4115 RLU
Experimental: (§1) The Stressgen StressXpress™ cyclooxygenases activity Kit provides a method to measure specifically cyclooxygenases COX-1 and COX-2 in a variety of biological fluids. The kit uses a specific chemiluminescent substrate (aromatic hydrocarbon molecule) to detect the peroxidative activity of COX enzymes. […] Light emission begins immediately and chemiluminescent signal (Relative Luminescence Units—RLU—is measured after 30 minutes (luminometer Tecan). The amount of light emitted is directly proportional to the COX activity.

HT 29 cells = assay: PGE2 synthesis in HT29 cells treated with α-CH2-γ-butyrolactone with and without TNF-α; format: cell-based, human; conditions: for pg PGE2/ml of medium + TNF-α / PGE2 % of control − TNF-α / pg PGE2/ml of medium − TNF-α: 21 h; for pg PGE2/ml of medium + TNF-α / PGE2 % of control + TNF-α: TNF-α 10 ng/ml for 6 h; for PGE2 % of control − TNF-α / pg PGE2/ml of medium − TNF-α: without TNF-α; for PGE2 % of control + TNF-α: relative to methanol control without TNF-α (control + TNF-α = 730)
Experimental: To this end, cells were cultured and passed in Mc Coy's 5A medium supplemented with arachidonic acid ([…]) and bovine serum albumin (0.01%). Cells were treated by alpha-methylen-gamma-butyrolactone (dissolved in methanol) at the following doses: 15, 30, 60 microM or by solvent alone during 21 h including or not stimulation with TNF-alpha (10 ng/ml) for 6 h. PGE2 analysis was performed using an Elisa test on a medium sample.

COX-2 = biological target: T1, COX-2 (Homo sapiens, UniProt P35354); assay: Stressgen StressXpress cyclooxygenase activity kit, COX-2; format: biochemical
T1 sequence (P35354 18-604): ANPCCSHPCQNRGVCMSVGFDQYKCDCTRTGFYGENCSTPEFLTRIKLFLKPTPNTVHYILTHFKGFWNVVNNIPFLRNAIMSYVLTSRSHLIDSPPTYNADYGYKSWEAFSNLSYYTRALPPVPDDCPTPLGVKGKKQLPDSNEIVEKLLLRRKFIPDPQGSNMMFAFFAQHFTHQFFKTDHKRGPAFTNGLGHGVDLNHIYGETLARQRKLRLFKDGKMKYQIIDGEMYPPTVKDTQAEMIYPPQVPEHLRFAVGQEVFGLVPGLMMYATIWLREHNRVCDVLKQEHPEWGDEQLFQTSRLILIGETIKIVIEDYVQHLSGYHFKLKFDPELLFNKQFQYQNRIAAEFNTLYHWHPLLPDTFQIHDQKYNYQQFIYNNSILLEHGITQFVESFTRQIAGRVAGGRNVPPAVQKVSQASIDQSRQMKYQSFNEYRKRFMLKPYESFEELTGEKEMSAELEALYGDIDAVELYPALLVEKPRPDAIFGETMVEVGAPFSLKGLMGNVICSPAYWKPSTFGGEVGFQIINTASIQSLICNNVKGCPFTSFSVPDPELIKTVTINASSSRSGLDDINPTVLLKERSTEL
Experimental: as §1

[1] = tested on: COX-2 expression in HT29 cells; assay: Western blot of COX-2 expression in HT 29 cells; format: cell-based, human; conditions: FIG. 1
Experimental: Western blot analysis: cells lysate were prepared by treating HT 29 cells (treated as above for PGE-2 determinations, i.e. in presence or absence of TNF-alpha and with or without α-CH2-γ-butyrolactone) with lysis buffer (150 mM NaCl, 10 mM Tris HCl pH 8, 1% Tween 20, EDTA pH 8 1 mM, proteases inhibitors, PEFA, (Merck), DETC (Aldrich)). Lysates were sonicated for 5 s, and centrifugated at 10000 g for 5 min. Proteins concentration were estimated by the Bradford method which was standardized using bovine serum albumine.
Whole cell extracts (25 μg) were boiled in Laemmli sample buffer and resolved by SDS-PAGE on 10% gel using the discontinuous polyacrylamide gel system. Non specific binding sites were blocked by incubating the membrane in 5% dried milk phosphate buffered saline solution containing 0.1% of tween-20 overnight at 4° C. Blots were hybridized in a 1:1000 dilution of a goat polyclonal anti COX-2 and also COX-1 antibody (C-20, Santa Cruz Biotechnology) in 5% milk PBS for 1 h at room temperature followed by 1 h of washing in 1% milk PBS. Subsequently, blots were probed with a secondary donkey anti-goat antibody horseradish peroxidase conjugated. After washing for 1 h, the complex was detected using ECL Western blotting reagents (Amersham)

Chain of COX-1 (P23219 24-599): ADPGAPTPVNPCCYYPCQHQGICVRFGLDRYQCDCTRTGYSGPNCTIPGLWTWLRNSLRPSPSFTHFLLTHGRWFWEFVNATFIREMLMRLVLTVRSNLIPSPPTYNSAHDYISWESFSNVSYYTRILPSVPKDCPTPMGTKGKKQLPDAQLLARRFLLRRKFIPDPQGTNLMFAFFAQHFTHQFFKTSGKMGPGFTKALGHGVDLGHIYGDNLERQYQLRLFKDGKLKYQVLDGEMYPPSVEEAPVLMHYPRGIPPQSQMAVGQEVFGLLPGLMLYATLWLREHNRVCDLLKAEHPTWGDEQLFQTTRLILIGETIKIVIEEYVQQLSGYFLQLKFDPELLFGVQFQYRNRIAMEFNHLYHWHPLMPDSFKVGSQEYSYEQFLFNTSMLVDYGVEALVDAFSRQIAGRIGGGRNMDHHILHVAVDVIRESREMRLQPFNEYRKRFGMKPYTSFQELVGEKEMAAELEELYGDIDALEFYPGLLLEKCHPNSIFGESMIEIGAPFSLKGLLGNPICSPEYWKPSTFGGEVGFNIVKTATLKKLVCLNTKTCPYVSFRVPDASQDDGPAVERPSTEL

SMILES | COX-1 activity % of control (COX-1; 1 mM) | COX-1 activity (RLU) (COX-1; 1 mM) | pg PGE2/ml of medium + TNF-α (HT 29 cells; 15 μM) [pg/mL] | PGE2 % of control − TNF-α (HT 29 cells; 15 μM) | pg PGE2/ml of medium − TNF-α (HT 29 cells; 15 μM) [pg/mL] | PGE2 % of control + TNF-α (HT 29 cells; 15 μM) | pg PGE2/ml of medium + TNF-α (HT 29 cells; 30 μM) [pg/mL] | PGE2 % of control − TNF-α (HT 29 cells; 30 μM) | pg PGE2/ml of medium − TNF-α (HT 29 cells; 30 μM) [pg/mL] | PGE2 % of control + TNF-α (HT 29 cells; 30 μM) | pg PGE2/ml of medium + TNF-α (HT 29 cells; 60 μM) [pg/mL] | PGE2 % of control − TNF-α (HT 29 cells; 60 μM) | pg PGE2/ml of medium − TNF-α (HT 29 cells; 60 μM) [pg/mL] | PGE2 % of control + TNF-α (HT 29 cells; 60 μM) | COX-1 activity % of control (COX-1; 40 μM) | COX-1 activity (RLU) (COX-1; 40 μM) | COX-2 activity % of control (COX-2; 40 μM) | COX-2 activity (RLU) (COX-2; 40 μM, vehicle 26450 RLU) | inhibition of COX-2 activity (in words) (COX-2; cyclooxygenase activity kit) | COX-2 expression (Western blot, in words) [1]
CS(=O)(=O)Nc1ccc([N+](=O)[O-])cc1OC1CCCCC1 [NS-398, reference compound] | 99 % of control | 4063 | – | – | – | – | – | – | – | – | – | – | – | – | – | – | – | – | – | –
C=C1CCOC1=O [α-CH2-γ-butyrolactone, α-methylene-γ-butyrolactone] | – | – | 13286 | 108 % of control | 2814 | 512 % of control | 9349 | 76 % of control | 1970 | 360 % of control | 1310 | 14 % of control | 1144 | 50 % of control | 117 % of control | 4807 | 49 % of control | 12823 | inhibit specifically and with high potency COX-2 activity | inhibition of COX-2 expression
